Format in all cases: in vivo
The subject of experiment [1] is adult animals Blattella germanica strain PAULINIA
The experiment is described as follows: Blattella germanica test (BLTTGE surface treatment & contact assay). Particulars: 24 hours after contact, read-out: efficacy (mortality); for mortality at 20 mg/m2: surface concentration 20 mg/m^2, 30 min exposure; for mortality at 4 mg/m2: surface concentration 4 mg/m^2, 30 min exposure. The method, then: Blattella germanica Test (BLTTGE Surface Treatment & Contact Assay)
(§1) Solvent: Aceton+2000 ppm rapeseed oil methyl ester (RME)
In order to produce a sufficient, active ingredient containing solution it is necessary to solve the test compound in the solvent-mix (acetone at 2 mg/ml/RME 2000 ppm). This solution is pipetted onto a glazed tile and after evaporation of the acetone, adult animals of the species Blattella germanica strain PAULINIA are placed onto the dried surface. The exposure time is 30 minutes.
Mortality in percent (%) is determined 24 hours after contact of the insects to the treated surface. 100% mortality means that all tested insects are dead, whereas 0% means that no insect died.

The subject of experiment [2] is green peach aphid (Myzus persicae). The experiment is described as follows: Myzus persicae spray test (MYZUPE). Conditions: 120 h, 100 g/ha, after 5 days. A digest of the protocol:
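Percent aphid kill, with 0% meaning none killed, was read 5 days after spraying. The preparation (acetone–DMF solvent, water with 1000 ppm emulsifier) was applied to Brassica pekinensis leaf disks carrying mixed-instar green peach aphids.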

Experiment [3] has as its system larvae of the southern green stink bug (Nezara viridula). Put plainly: whole plant or invertebrate. Conditions: 96 h. A digest of the protocol: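 Percent mortality of southern green stink bug larvae was recorded at day 4, with 100% meaning all dead. The larvae were placed on barley sprayed with the test solution. That solution was prepared from acetone/dimethylformamide concentrate diluted in emulsifier-containing water (1000 ppm).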

Experiment [4] has as its system adult mosquitoes Culex quinquefasciatus strain P00. Put plainly: Culex quinquefasciatus test (CULXFA surface treatment & contact assay). Conditions: 24 hours after contact, read-out: efficacy (mortality); for mortality at 4 mg/m2: surface concentration 4 mg/m^2, 30 min exposure; for mortality at 20 mg/m2: surface concentration 20 mg/m^2, 30 min exposure. The method, then:
Culex quinquefasciatus Test (CULXFA Surface Treatment & Contact Assay)
as §1
This solution is pipetted onto a glazed tile and after evaporation of the acetone, adult mosquitoes of the species Culex quinquefasciatus strain P00 are placed onto the dried surface. The exposure time is 30 minutes. Mortality in percent (%) is determined 24 hours after contact of the insects to the treated surface. 100% mortality means that all tested insects are dead, whereas 0% means that no insect died.

In experiment [5] the test system is larvae of the banded cucumber beetle (Diabrotica balteata). The experiment is described as follows: Diabrotica balteata spray test. Particulars: 168 h, 100 g/ha (=32 μg/well), after 7 days, read-out: efficacy (seedling growth). The gist of the method:
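Efficacy is seedling survival after 7 days, where 0% means no seedlings grew and 100% means growth equal to untreated, uninfested controls. Wheat seedlings, germinated on agar for 1 day, were sprayed with the aqueous emulsifier dilution (acetone/DMF solvent) and then exposed to 10–20 banded cucumber beetle larvae.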

Experiment [6] deals with fall armyworm larvae (Spodoptera frugiperda). Put plainly: whole plant or invertebrate. Conditions: 168 h. The gist of the method:
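Percent kill of Spodoptera frugiperda caterpillars, read 7 days after infestation of dried, spray-treated Zea mays leaf pieces. Spray preparation: compound in acetone plus dimethylformamide, diluted with emulsifier-containing water.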

The test system of experiment [7] is adult mosquitoes Aedes aegypti strain MONHEIM. Put plainly: Aedes aegypti test (AEDSAE surface treatment & contact assay). Particulars: 24 hours after contact, read-out: efficacy (mortality); for mortality at 4 mg/m2: surface concentration 4 mg/m^2, 30 min exposure; for mortality at 20 mg/m2: surface concentration 20 mg/m^2, 30 min exposure. The method, then:
Aedes aegypti Test (AEDSAE Surface Treatment & Contact Assay)
as §1
This solution is pipetted onto a glazed tile and after evaporation of the acetone, adult mosquitoes of the species Aedes aegypti strain MONHEIM are placed onto the dried surface. The exposure time is 30 minutes. Mortality in percent (%) is determined 24 hours after contact of the insects to the treated surface. 100% mortality means that all tested insects are dead, whereas 0% means that no insect died.

Experiment [8] concerns brown planthopper (Nilaparvata lugens). The experiment is described as follows: Nilaparvata lugens spray test. Particulars: 96 h. A digest of the protocol:
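Rice plants (Oryza sativa) sprayed with compound formulated in acetone/DMF with alkylarylpolyglycol ether emulsifier (1000 ppm in diluting water), then infested with planthoppers. Mortality (%) scored after 4 days; 100% = all insects killed, 0% = none killed.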

The subject of experiment [9] is adult flies Musca domestica strain WHO-N. Put plainly: Musca domestica test (MUSCDO surface treatment & contact assay). Conditions: 24 hours after contact, read-out: efficacy (mortality); for mortality at 4 mg/m2: surface concentration 4 mg/m^2, 30 min exposure; for mortality at 20 mg/m2: surface concentration 20 mg/m^2, 30 min exposure. How it is done:
Musca domestica Test (MUSCDO Surface Treatment & Contact Assay)
as §1
This solution is pipetted onto a glazed tile and after evaporation of the acetone, adult flies of the species Musca domestica strain WHO-N are placed onto the dried surface. The exposure time is 30 minutes. Mortality in percent (%) is determined 24 hours after contact of the insects to the treated surface. 100% mortality means that all tested insects are dead, whereas 0% means that no insect died.

Experiment [10] relates to adult cat fleas (Ctenocephalides felis). Put plainly: Ctenocephalides felis in-vitro contact test, adult cat flea. Particulars: 5 μg/cm^2 (=500 g/ha), after 48 hours. A digest of the protocol:
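After 48 h of room-temperature exposure in tubes whose walls carried dried compound residue (5 μg/cm^2, from 900 ppm acetone solution), adult cat fleas (5-10 per tube) were heat-challenged at 45-50° C up to 5 min. Fleas unable to climb away were counted dead or moribund, expressed as % efficacy.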

For experiment [11], the system named is adult brown dog ticks (Rhipicephalus sanguineus). The experiment is described as follows: Rhipicephalus sanguineus in-vitro contact test, adult brown dog ticks. Particulars: 48 h, read-out: efficacy (ticks dead or moribund). A digest of the protocol: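 Contact exposure: dried compound film inside glass tubes, dose 5 μg/cm^2 at 900 ppm, 5-10 adults per tube at room temperature. Scored at 48 h via a heat-escape test on a 45-50° C plate for up to 5 min.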

Experiment [12] concerns cattle tick larvae (Rhipicephalus microplus), strain Parkhurst, resistant against synthetic pyrethroids. Put plainly: Rhipicephalus (Boophilus) microplus in-vitro contact test, larval cattle tick. Particulars: 5 μg/cm^2 (=500 g/ha), after 48 hours. A digest of the protocol:
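Larvae exposed by contact to a dried acetone film on glass; a 900 ppm solution yields 5 μg/cm^2. Scoring after 48 h at 27° C. counts dead plus moribund larvae as efficacy.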

Here are results for eight compounds from patent US12612386B2, “Heteroaryl-triazole compounds as pesticides” (Bayer Aktiengesellschaft, priority 2020, dated 2026).

As to `CNC(=O)c1cc(-n2ncnc2[C@H](C)NC(=O)c2cc(OC(F)(F)F)cc(S(=O)(=O)C(F)(F)F)c2)ncn1` [I-90], the mortality at 20 mg/m2 in experiment [1], in [4], in experiment [7] and in experiment [9] was 80 to 100% each time. Further, the mortality at 100 g/ha in experiment [2] and in [6] was 100% throughout. Also, the mortality at 500 g/ha in experiment [3] worked out at 100%; in experiment [8], 90%. In addition, the mortality at 4 mg/m2 in experiment [4], in [7] and in experiment [9] was 80 to 100% each time. Further, in [5], the pest or weed control at 32 µg/disc, 100 g/ha came to 100%.
Consider `CNC(=O)c1cc(-n2ncnc2[C@H](C)NC(=O)c2cc(Br)cc(OC(F)(F)F)c2)ncn1` [I-74], for which, in [10], the “efficacy (fleas dead or moribund)” value amounted to 100%. The mortality at 4 mg/m2 in experiment [1], in [4], in [7] and in experiment [9] was 80 to 100% each time. For the same compound, the mortality at 20 mg/m2 in experiment [1], in experiment [4], in experiment [7] and in experiment [9] was 80 to 100% throughout. The pest or weed control at 5 µg/cm2, 500 g/ha in [11] turned out to be 100%. Further, the values for the mortality at 100 g/ha in experiment [2] and in [6] were 90% and 100%, respectively. Besides, the mortality at 500 g/ha in [3] and in experiment [8] was 100% throughout. The pest or weed control at 32 µg/disc, 100 g/ha in [5] was determined as 80%. Further, in experiment [12], the “efficacy (larvae dead or moribund)” value came to 100%.
Take `CNC(=O)c1cc(-n2ncnc2[C@H](C)NC(=O)c2cc(Cl)cc(OC(F)(F)F)c2)ncn1` [I-73]: the “efficacy (fleas dead or moribund)” value in experiment [10] is reported as 100%. In addition, the mortality at 4 mg/m2 in experiment [1], in [4], in experiment [7] and in experiment [9] was 80 to 100% throughout. For the same compound, the mortality at 20 mg/m2 in [1], in [4], in experiment [7] and in experiment [9] was 80 to 100% each time. For the same compound, the pest or weed control at 5 µg/cm2, 500 g/ha in experiment [11] turned out to be 100%. Also, the mortality at 100 g/ha in experiment [2] came to 70%; in experiment [6], 100%. For the same compound, the mortality at 500 g/ha in [3] and in experiment [8] was 100% each time. In addition, the pest or weed control at 32 µg/disc, 100 g/ha in [5] turned out to be 100%. Besides, in experiment [12], the “efficacy (larvae dead or moribund)” value is 100%.
`C[C@H](NC(=O)c1cc(OC(F)(F)F)cc(OC(F)(F)F)c1)c1ncnn1-c1cc(C(N)=O)ncn1` [I-102]: in experiment [10], the “efficacy (fleas dead or moribund)” value was 100%. The mortality at 4 mg/m2 in experiment [1], in [4], in [7] and in experiment [9] was 80 to 100% in each case. The mortality at 20 mg/m2 in experiment [1], in experiment [4], in experiment [7] and in [9] was 80 to 100% in each case. For the same compound, in experiment [11], the pest or weed control at 5 µg/cm2, 500 g/ha turned out to be 80%. Besides, the mortality at 100 g/ha in experiment [2] and in experiment [6] was 100% each time. Further, the mortality at 500 g/ha in [3] amounted to 100%; in [8], 90%. In addition, the pest or weed control at 32 µg/disc, 100 g/ha in experiment [5] is 100%. In addition, in experiment [12], the “efficacy (larvae dead or moribund)” value amounted to 100%.
`C[C@H](NC(=O)c1cc(OC(F)F)cc(OC(F)F)c1)c1ncnn1-c1cc(C(N)=O)ncn1` [I-93]: the mortality at 4 mg/m2 in experiment [1], in experiment [4], in experiment [7] and in experiment [9] was 80 to 100% each time. Moreover, the mortality at 20 mg/m2 in experiment [1], in experiment [4], in experiment [7] and in [9] was 80 to 100% each time. In addition, the mortality at 100 g/ha in experiment [2] and in experiment [6] was 100% throughout. In addition, the mortality at 500 g/ha in [3] and in [8] was 100% in each case. Also, the pest or weed control at 32 µg/disc, 100 g/ha in experiment [5] turned out to be 100%.
For the compound `C[C@H](NC(=O)c1cc(Cl)cc(OC(F)(F)F)c1)c1ncnn1-c1cc(C(N)=O)ncn1` [I-49], the “efficacy (fleas dead or moribund)” value in experiment [10] is on record as 100%. For the same compound, the mortality at 4 mg/m2 in [1], in experiment [4], in [7] and in experiment [9] was 80 to 100% each time. The mortality at 20 mg/m2 in [1], in experiment [4], in experiment [7] and in experiment [9] was 80 to 100% throughout. The pest or weed control at 5 µg/cm2, 500 g/ha in [11] was 80%. The mortality at 100 g/ha in experiment [2], in [3] and in experiment [6] was 100% throughout. The mortality at 500 g/ha in [3] and in experiment [8] was 100% each time. For the same compound, in experiment [5], the pest or weed control at 32 µg/disc, 100 g/ha came out at 100%. The “efficacy (larvae dead or moribund)” value in experiment [12] turned out to be 100%.
As for `C[C@H](NC(=O)c1cc(Br)cc(OC(F)F)c1)c1ncnn1-c1cc(C(N)=O)ncn1` [I-51], in experiment [10], the “efficacy (fleas dead or moribund)” value stood at 100%. For the same compound, the mortality at 4 mg/m2 in experiment [1], in [4], in experiment [7] and in [9] was 80 to 100% each time. Further, the mortality at 20 mg/m2 in experiment [1], in experiment [4], in experiment [7] and in [9] was 80 to 100% throughout. In addition, the pest or weed control at 5 µg/cm2, 500 g/ha in experiment [11] was 100%. The mortality at 100 g/ha in [2] is 90%; in [3] it was 100%; in experiment [6], 100%. Besides, the mortality at 500 g/ha in experiment [3] and in experiment [8] was 100% in each case. In [5], the pest or weed control at 32 µg/disc, 100 g/ha was found to be 100%. Besides, the “efficacy (larvae dead or moribund)” value in experiment [12] stood at 100%.
For the compound `C[C@H](NC(=O)c1cc(Br)cc(OC(F)(F)F)c1)c1ncnn1-c1cc(C(N)=O)ncn1` [I-21], the “efficacy (fleas dead or moribund)” value in [10] is reported as 100%. Also, the mortality at 4 mg/m2 in experiment [1], in experiment [4], in experiment [7] and in experiment [9] was 80 to 100% each time. In addition, the mortality at 20 mg/m2 in experiment [1], in [7] and in [9] was 80 to 100% each time. Moreover, in [11], the pest or weed control at 5 µg/cm2, 500 g/ha was 100%. The mortality at 100 g/ha stood at 90% in experiment [2], 100% in experiment [3] and 100% in experiment [6]. The compound also showed a mortality at 500 g/ha in [3] of 100%. In experiment [5], the pest or weed control at 32 µg/disc, 100 g/ha was determined as 100%. In addition, in [12], the “efficacy (larvae dead or moribund)” value is on record as 100%.
